Laboratory results reported in patent US20200017495A1, “NOVEL HETEROCYCLIC COMPOUNDS AND THEIR USE IN PREVENTING OR TREATING BACTERIAL INFECTIONS” (priority 2017, published 2020).

Key:
Assay in all cases: MIC of compounds alone and combined with antibacterials, broth microdilution (CLSI)
Format in all cases: cell-based
[1] = test system: Serratia marcescens (SMA) isolates
Procedure, shortened: (§1)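 Broth microdilution in cation-adjusted Mueller-Hinton broth, inoculum 5.10^5 CFU/mL, 16-20 h at 35° C in ambient air, on genotyped isolates. Compound MIC, alone or with an antibacterial, taken visually as lowest concentration preventing growth; antibacterial MIC determined at each compound concentration.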

[2] = test system: Providencia rettgeri (PRE) isolates
Procedure, shortened: as §1

[3] = test system: Enterobacter cloacae (ECL) isolates
Procedure, shortened: as §1

**Q.** What does the source list for `C=CC1=C(C(=O)O)N2C(=O)[C@@H](NC(=O)/C(=N\OCC(=O)O)c3csc(N)n3)[C@H]2SC1` [FIX, Cefixime]?
**A.** MIC ([1]; strain SMA UFR238, genotype OXA-48): 1 µg/mL; MIC ATB in combination ([1]; strain SMA UFR238, with AF2 @ 8 μg/mL): 0.5 µg/mL; MIC ATB in combination ([1]; strain SMA UFR238, with AF3 @ 8 μg/mL): 0.5 µg/mL; MIC ATB in combination ([1]; strain SMA UFR238, with CLA @ 4 μg/mL): 2 µg/mL; MIC ([1]; strain SMA UFR239, genotype ESAC): 2 µg/mL; MIC ATB in combination ([2]; PRE UFR99, AF2 @ 8 μg/mL): >128 µg/mL; MIC ATB in combination ([2]; PRE UFR99, AF3 @ 8 μg/mL): >128 µg/mL; MIC ATB in combination ([2]; PRE UFR99, CLA @ 4 μg/mL): >128 µg/mL; MIC ([2]; strain PRE UFR96, genotype CTX-M-15, NDM-1): >128 µg/mL; MIC ATB in combination ([2]; strain PRE UFR96, with AF2 @ 8 μg/mL): <0.25 µg/mL; MIC ATB in combination ([2]; strain PRE UFR96, with AF3 @ 8 μg/mL): <0.25 µg/mL; MIC ATB in combination ([2]; strain PRE UFR96, with CLA @ 4 μg/mL): >128 µg/mL; MIC ([2]; strain PRE UFR97, genotype TEM-1, NDM-1): >128 µg/mL; MIC ATB in combination ([2]; strain PRE UFR97, with AF2 @ 8 μg/mL): >128 µg/mL; MIC ATB in combination ([2]; strain PRE UFR97, with AF3 @ 8 μg/mL): >128 µg/mL; MIC ATB in combination ([2]; strain PRE UFR97, with CLA @ 4 μg/mL): >128 µg/mL; MIC ([2]; strain PRE UFR99, genotype OXA-1, OXA-181): >128 µg/mL; MIC ([2]; strain PRE UFR236, genotype TEM-1, OXA-48): 32 µg/mL; MIC ATB in combination ([2]; strain PRE UFR236, with AF2 @ 8 μg/mL): <=0.25 μg/mL; MIC ATB in combination ([2]; strain PRE UFR236, with AF3 @ 8 μg/mL): <=0.25 μg/mL; MIC ATB in combination ([2]; strain PRE UFR236, with CLA @ 4 μg/mL): 32 µg/mL; MIC ATB in combination ([3]; ECL 2185D, AF2 @ 8 μg/mL): >128 µg/mL; MIC ATB in combination ([3]; ECL 2185D, AF3 @ 8 μg/mL): >128 µg/mL; MIC ATB in combination ([3]; ECL 2185D, CLA @ 4 μg/mL): >128 µg/mL; MIC ATB in combination ([3]; ECL 190310, AF2 @ 8 μg/mL): >128 µg/mL; MIC ATB in combination ([3]; ECL 190310, AF3 @ 8 μg/mL): 64 µg/mL; MIC ATB in combination ([3]; ECL 190310, CLA @ 4 μg/mL): >128 µg/mL; MIC ATB in combination ([3]; ECL 190408, AF2 @ 8 μg/mL): <0.25 µg/mL; MIC ATB in combination ([3]; ECL 190408, AF3 @ 8 μg/mL): <0.25 µg/mL; MIC ATB in combination ([3]; ECL 190408, CLA @ 4 μg/mL): 128 µg/mL; MIC ATB in combination ([3]; ECL 200138, AF2 @ 8 μg/mL): >128 µg/mL; MIC ATB in combination ([3]; ECL 200138, AF3 @ 8 μg/mL): >128 µg/mL; MIC ATB in combination ([3]; ECL 200138, CLA @ 4 μg/mL): >128 µg/mL; MIC ATB in combination ([3]; ECL 200322, AF2 @ 8 μg/mL): <=0.25 μg/mL; MIC ATB in combination ([3]; ECL 200322, AF3 @ 8 μg/mL): <0.25 µg/mL; MIC ATB in combination ([3]; ECL 200322, CLA @ 4 μg/mL): 64 µg/mL; MIC ATB in combination ([3]; ECL 260033, AF2 @ 8 μg/mL): >128 µg/mL; MIC ATB in combination ([3]; ECL 260033, AF3 @ 8 μg/mL): >128 µg/mL; MIC ATB in combination ([3]; ECL 260033, CLA @ 4 μg/mL): >128 µg/mL; MIC ATB in combination ([3]; ECL 260253, AF2 @ 8 μg/mL): <0.25 µg/mL; MIC ATB in combination ([3]; ECL 260253, AF3 @ 8 μg/mL): <=0.25 μg/mL; MIC ATB in combination ([3]; ECL 260253, CLA @ 4 μg/mL): 64 µg/mL; MIC ATB in combination ([3]; ECL 260323, AF2 @ 8 μg/mL): <0.25 µg/mL; MIC ATB in combination ([3]; ECL 260323, AF3 @ 8 μg/mL): <0.25 µg/mL; MIC ATB in combination ([3]; ECL 260323, CLA @ 4 μg/mL): >128 µg/mL; MIC ATB in combination ([3]; ECL 260508, AF2 @ 8 μg/mL): <0.25 µg/mL; MIC ATB in combination ([3]; ECL 260508, AF3 @ 8 μg/mL): <=0.25 μg/mL; MIC ATB in combination ([3]; ECL 260508, CLA @ 4 μg/mL): 32 µg/mL; MIC ATB in combination ([3]; ECL HAN, AF2 @ 8 μg/mL): >128 µg/mL; MIC ATB in combination ([3]; ECL HAN, AF3 @ 8 μg/mL): >128 µg/mL; MIC ATB in combination ([3]; ECL HAN, CLA @ 4 μg/mL): >128 µg/mL; MIC ATB in combination ([3]; ECL NEM146383, AF2 @ 8 μg/mL): >128 µg/mL; MIC ATB in combination ([3]; ECL NEM146383, AF3 @ 8 μg/mL): 16 µg/mL; MIC ATB in combination ([3]; ECL NEM146383, CLA @ 4 μg/mL): >128 µg/mL; MIC ATB in combination ([3]; ECL P99, AF2 @ 8 μg/mL): 4 µg/mL; MIC ATB in combination ([3]; ECL P99, AF3 @ 8 μg/mL): 8 µg/mL; MIC ATB in combination ([3]; ECL P99, CLA @ 4 μg/mL): >128 µg/mL; MIC ATB in combination ([3]; ECL UFR12, AF2 @ 8 μg/mL): <=0.25 μg/mL; MIC ATB in combination ([3]; ECL UFR12, AF3 @ 8 μg/mL): <=0.25 μg/mL; MIC ATB in combination ([3]; ECL UFR12, CLA @ 4 μg/mL): 8 µg/mL; MIC ATB in combination ([3]; ECL UFR13, AF2 @ 8 μg/mL): 4 µg/mL; MIC ATB in combination ([3]; ECL UFR13, AF3 @ 8 μg/mL): 2 µg/mL; MIC ATB in combination ([3]; ECL UFR13, CLA @ 4 μg/mL): 128 µg/mL; MIC ATB in combination ([3]; ECL UFR14, AF2 @ 8 μg/mL): 32 µg/mL
